Assay results published in ChEMBL document CHEMBL4507269, “Data for DCP probe BAY-386” (2021).

What was measured:
Rattus norvegicus [1] = species: Rattus norvegicus; experiment: Testosterone Eurofins-Panlabs radioligand binding assay; design: ligand concentration 1.5 nM; conditions: Compound concentration 10.0 uM
Rattus norvegicus [2] = species: Rattus norvegicus; experiment: Inhibition of Imidazoline I2, Central at 10 µM in the Eurofins-Panlabs radioligand binding assay (Eurofins_assay_241000); design: ligand concentration 2 nM; conditions: Compound concentration 10.0 uM
[3] = target: ATP-sensitive inward rectifier potassium channel 11 (Cricetulus griseus) (UniProt A0A3L7HHE1); experiment: Inhibition of Potassium Channel [KATP] at 10 µM in the Eurofins-Panlabs radioligand binding assay (Eurofins_assay_265600); conditions: Cricetinae; Compound concentration 10.0 uM
Chain of ATP-sensitive inward rectifier potassium channel 11 (Cricetulus griseus) (A0A3L7HHE1 as listed by the source): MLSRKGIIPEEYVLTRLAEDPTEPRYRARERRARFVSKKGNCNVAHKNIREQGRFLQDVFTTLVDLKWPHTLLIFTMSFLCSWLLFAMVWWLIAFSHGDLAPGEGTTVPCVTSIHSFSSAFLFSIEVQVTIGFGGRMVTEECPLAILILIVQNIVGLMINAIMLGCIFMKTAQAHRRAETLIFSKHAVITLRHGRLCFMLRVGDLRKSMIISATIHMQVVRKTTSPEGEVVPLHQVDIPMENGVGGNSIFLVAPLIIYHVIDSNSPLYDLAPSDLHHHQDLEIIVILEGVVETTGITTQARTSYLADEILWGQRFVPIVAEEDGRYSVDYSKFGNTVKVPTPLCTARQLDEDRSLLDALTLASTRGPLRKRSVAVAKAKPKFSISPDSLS

[4] = target: Adenosine receptor A2a (Homo sapiens) (UniProt P29274); conditions: Compound concentration 10.0 uM
Chain of Adenosine receptor A2a (Homo sapiens) (P29274 whole entry): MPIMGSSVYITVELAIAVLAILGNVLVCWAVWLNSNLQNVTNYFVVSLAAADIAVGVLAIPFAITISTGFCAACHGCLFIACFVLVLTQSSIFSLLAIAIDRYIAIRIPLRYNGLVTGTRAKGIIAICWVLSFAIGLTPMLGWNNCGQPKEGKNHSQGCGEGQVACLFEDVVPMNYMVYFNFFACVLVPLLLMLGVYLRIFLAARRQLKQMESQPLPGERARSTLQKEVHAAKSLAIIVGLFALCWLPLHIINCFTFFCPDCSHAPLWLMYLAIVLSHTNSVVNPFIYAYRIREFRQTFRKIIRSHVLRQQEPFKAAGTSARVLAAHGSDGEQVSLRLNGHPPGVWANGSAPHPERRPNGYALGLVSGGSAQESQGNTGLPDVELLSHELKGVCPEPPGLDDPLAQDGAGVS

Rattus norvegicus [5] = species: Rattus norvegicus; experiment: Inhibition of Glutamate, NMDA, Phencyclidine at 10 µM in the Eurofins-Panlabs radioligand binding assay (Eurofins_assay_233000); type: protein-complex assay; conditions: Compound concentration 10.0 uM
[6] = target: T1, 5-hydroxytryptamine receptor 1A (Homo sapiens) (UniProt P08908); conditions: Compound concentration 10.0 uM
T1 sequence (whole entry): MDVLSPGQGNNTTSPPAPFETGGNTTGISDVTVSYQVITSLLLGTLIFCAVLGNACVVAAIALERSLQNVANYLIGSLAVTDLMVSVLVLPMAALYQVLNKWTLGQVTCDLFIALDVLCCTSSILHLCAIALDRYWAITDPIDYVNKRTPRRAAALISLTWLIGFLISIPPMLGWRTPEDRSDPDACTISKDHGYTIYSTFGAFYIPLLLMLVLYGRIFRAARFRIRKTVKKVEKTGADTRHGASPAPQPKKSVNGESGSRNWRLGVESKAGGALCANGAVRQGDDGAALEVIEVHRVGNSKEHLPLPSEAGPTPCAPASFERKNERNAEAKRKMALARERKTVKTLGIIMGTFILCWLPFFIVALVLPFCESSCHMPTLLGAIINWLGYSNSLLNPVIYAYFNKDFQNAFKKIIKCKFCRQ

[7] = target: T2, D(4) dopamine receptor (Homo sapiens) (UniProt P21917); experiment: Inhibition of Dopamine D4.2 at 10 µM in the Eurofins-Panlabs radioligand binding assay (Eurofins_assay_219900); design: ligand concentration 0.5 nM; conditions: Compound concentration 10.0 uM
T2 sequence (whole entry): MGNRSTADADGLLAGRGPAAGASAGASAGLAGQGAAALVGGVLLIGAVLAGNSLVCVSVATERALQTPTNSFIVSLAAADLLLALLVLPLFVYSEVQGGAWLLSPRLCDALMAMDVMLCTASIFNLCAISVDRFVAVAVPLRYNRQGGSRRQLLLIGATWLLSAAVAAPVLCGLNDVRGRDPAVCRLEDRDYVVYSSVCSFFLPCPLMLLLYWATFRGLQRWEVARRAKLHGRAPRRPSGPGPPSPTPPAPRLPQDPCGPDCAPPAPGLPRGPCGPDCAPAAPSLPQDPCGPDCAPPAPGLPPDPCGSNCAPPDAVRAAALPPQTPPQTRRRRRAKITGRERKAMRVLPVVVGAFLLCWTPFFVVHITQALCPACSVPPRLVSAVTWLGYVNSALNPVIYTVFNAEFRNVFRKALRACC

Rattus norvegicus [8] = species: Rattus norvegicus; conditions: Compound concentration 10.0 uM
[9] = target: T3, Adenosine receptor A3 (Homo sapiens) (UniProt P0DMS8); conditions: Compound concentration 10.0 uM
T3 sequence (whole entry): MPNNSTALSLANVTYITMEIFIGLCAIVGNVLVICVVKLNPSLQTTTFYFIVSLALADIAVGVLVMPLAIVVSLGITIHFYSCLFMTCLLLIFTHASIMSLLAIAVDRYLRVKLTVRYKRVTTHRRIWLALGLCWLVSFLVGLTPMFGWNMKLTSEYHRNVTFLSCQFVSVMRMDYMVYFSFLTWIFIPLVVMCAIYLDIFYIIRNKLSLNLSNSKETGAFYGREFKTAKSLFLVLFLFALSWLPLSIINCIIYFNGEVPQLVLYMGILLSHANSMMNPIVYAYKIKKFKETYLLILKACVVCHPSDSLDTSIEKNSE

[10] = target: T4, Alpha-1A adrenergic receptor (Homo sapiens) (UniProt P35348); conditions: Rattus norvegicus; Compound concentration 10.0 uM
T4 sequence (whole entry): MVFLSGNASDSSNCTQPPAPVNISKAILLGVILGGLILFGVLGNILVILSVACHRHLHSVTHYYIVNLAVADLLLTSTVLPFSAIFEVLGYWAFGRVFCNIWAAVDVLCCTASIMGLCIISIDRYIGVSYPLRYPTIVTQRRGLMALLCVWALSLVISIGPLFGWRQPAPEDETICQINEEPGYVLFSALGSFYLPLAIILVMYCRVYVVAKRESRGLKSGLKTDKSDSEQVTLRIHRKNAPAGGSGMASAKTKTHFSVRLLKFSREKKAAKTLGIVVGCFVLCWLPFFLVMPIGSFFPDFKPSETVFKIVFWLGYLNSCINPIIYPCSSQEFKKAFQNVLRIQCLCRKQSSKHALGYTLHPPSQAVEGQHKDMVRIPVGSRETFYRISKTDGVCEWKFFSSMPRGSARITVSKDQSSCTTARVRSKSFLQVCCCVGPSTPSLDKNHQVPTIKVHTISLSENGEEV

[11] = target: Muscarinic acetylcholine receptor M3 (Homo sapiens) (UniProt P20309); conditions: Compound concentration 10.0 uM
Chain of Muscarinic acetylcholine receptor M3 (Homo sapiens) (P20309 whole entry, looked up): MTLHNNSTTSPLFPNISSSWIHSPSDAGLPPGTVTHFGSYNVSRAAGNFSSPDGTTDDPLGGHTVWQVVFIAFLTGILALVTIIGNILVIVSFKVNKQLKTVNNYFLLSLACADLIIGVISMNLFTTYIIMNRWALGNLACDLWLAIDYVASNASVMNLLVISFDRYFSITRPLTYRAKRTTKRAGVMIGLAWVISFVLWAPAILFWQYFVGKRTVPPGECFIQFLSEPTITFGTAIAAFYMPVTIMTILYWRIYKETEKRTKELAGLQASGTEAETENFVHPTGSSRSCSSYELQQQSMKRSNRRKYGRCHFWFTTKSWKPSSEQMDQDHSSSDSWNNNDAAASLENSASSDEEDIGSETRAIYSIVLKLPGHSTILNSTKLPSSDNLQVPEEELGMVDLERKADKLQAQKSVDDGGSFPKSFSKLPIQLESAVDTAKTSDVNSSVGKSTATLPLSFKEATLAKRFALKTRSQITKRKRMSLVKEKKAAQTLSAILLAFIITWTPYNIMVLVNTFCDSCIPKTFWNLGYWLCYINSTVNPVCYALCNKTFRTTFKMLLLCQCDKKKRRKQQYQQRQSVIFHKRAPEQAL

[12] = target: Beta-1 adrenergic receptor (Homo sapiens) (UniProt P08588); conditions: Compound concentration 10.0 uM
Chain of Beta-1 adrenergic receptor (Homo sapiens) (P08588 whole entry, looked up): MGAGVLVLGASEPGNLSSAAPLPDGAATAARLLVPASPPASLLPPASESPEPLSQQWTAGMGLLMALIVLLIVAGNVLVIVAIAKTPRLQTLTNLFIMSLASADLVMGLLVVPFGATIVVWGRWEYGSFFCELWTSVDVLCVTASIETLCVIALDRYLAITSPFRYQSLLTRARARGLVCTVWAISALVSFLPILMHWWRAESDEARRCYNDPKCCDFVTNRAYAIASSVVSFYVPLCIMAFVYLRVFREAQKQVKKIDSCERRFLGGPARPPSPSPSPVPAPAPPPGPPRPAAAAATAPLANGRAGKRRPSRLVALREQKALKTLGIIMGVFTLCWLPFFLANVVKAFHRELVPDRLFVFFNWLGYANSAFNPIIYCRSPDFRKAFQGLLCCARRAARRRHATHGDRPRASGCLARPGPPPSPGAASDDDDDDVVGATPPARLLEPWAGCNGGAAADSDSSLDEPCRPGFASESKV

[13] = target: T5, Muscarinic acetylcholine receptor M4 (Homo sapiens) (UniProt P08173); conditions: Compound concentration 10.0 uM
T5 sequence (whole entry): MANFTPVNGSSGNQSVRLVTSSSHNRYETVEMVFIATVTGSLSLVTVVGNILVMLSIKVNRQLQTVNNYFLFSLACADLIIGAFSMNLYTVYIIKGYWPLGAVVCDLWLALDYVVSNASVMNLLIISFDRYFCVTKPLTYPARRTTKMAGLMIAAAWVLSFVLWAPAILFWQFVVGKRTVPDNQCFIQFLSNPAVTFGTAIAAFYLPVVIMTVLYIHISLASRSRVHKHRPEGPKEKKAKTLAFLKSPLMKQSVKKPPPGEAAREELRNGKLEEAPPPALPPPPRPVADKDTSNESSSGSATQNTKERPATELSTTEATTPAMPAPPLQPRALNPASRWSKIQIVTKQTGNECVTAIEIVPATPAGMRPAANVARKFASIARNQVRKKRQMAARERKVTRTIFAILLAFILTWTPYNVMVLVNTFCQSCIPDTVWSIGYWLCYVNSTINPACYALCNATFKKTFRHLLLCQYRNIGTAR

Measured: inhibition

O=C(N1CCS(=O)(=O)CC1)N1C[C@H](c2ccc(OC(F)(F)F)cc2)C[C@H](c2nc(C3CC3)no2)C1 [BAY-386]
inactive: Rattus norvegicus [1] 11% | Rattus norvegicus [2] 0% | [3] 4% | [4] 0% | Rattus norvegicus [5] 0% | [6] -9% | [7] -9% | Rattus norvegicus [8] 14% | [9] 12% | [10] 1% | [11] -2%

Cc1noc([C@H]2C[C@@H](c3ccc(C(F)(F)F)cc3)CN(C(=O)N3CCS(=O)(=O)C3)C2)n1 [BAY-448]
inactive: [12] 3.66% | [13] -0.58%
